Where a name gives a salt, the structure may show the parent alone.
Columns and labels:
Type in all cases: in vivo, mice
amyloid deposition = assay: Acute amyloidosis (AgNO3 + AEF), oral sulfonated lower aliphatics, visual examination of spleen sections, Experiment 8; conditions: 50 µM in drinking water, six days; preliminary visual analysis of spleen sections
Protocol: Acute amyloidosis was elicited in mice with AgNO3 and amyloid enhancing factor as described in Experiment 2. Twenty-four hours later, the animals were divided into a control group and six test groups. The control group was maintained on standard laboratory mouse chow and tap water ad. lib. The test groups received standard chow but their water contained 50 µM of one of the following six compounds: ethanesulfonic acid sodium salt, 2-amino-ethanesulfonic acid sodium salt (taurine), propane-1-sulfonic acid sodium salt, ethane-1,2-disulfonic acid sodium salt, propane-1,3-disulfonic acid sodium salt, or butane-1,4-disulfonic acid sodium salt. Water intake was approximately equivalent for all groups. After six days, the animals were sacrificed and their spleens were processed as described for Experiment 2. For preliminary analysis, the spleen sections were examined visually under a microscope for differences in amyloid deposition in the treated animals versus the control animals.

[1] = system: AA splenic amyloid deposition; assay: Chronic amyloidosis (LPS + AEF, inflammatory stimulus maintained), oral treatment from day 7, Experiments 5 and 6
Protocol: (§1) In the following experiments, a well-characterized mouse model of amyloidosis was used. In this in vivo system, animals receive an inflammatory stimulus and amyloid enhancing factor. For acute amyloidosis (i.e., short term amyloid deposition), the inflammatory stimulus is AgNO3. For chronic amyloidosis (ongoing amyloid deposition), the inflammatory stimulus is lipopolysaccharide (LPS). Amyloid deposition (AA amyloid) in the spleens of mice was measured with and without therapeutic treatment.
To maintain the inflammation and the blood SAA levels, and allow amyloid to be continuously deposited for the duration of a longer term experiment, the nature of the inflammatory stimulus was changed. So as to maintain the inflammation, animals received lipopolysaccharide (LPS, 20 µg)+ AEF on day 0 and LPS was given by intraperitoneal injection every 2nd day. On day seven (7), the animals were separated into two groups as described in Experiment 4. Assessment of amyloid over the course of the experiment proceeded as described in Experiment 4. The control group (triangles) continued to deposit amyloid for the entire 17 day period. Those receiving PVS apparently stopped depositing amyloid by day 14 (open circles and dashed line). The data on day 17 represent 4 animals per group as one animal was omitted from this time period. The quantity of amyloid in this particular individual was so far removed from all other data points (treated or not, it was 21%) that it is believed that this was a statistically valid procedure. If this individual is included, the curve is represented by the dotted line and the remaining open circle. It should be pointed out that animals receiving PVS began to develop a significant diarrhea as the experiment proceeded.
In this experiment, another sulfonated compound, ethane monosulfate was used to inhibit amyloidosis. Ethane monosulfonate, sodium salt, (EMS) is structurally the monomeric unit of PVS. Animals were given LPS + AEF as in Experiment 5, but on day seven EMS was used in the drinking water as the therapeutic agent. […]

[2] = system: AA amyloid deposition in mouse spleen; assay: Acute AA amyloidosis mouse model (AgNO3 + AEF), intraperitoneal treatment, Experiment 1; conditions: 36.5 mg/injection IP every 8 hours, mean ± S.E.M., n = 5, untreated 7.8, p ≤ 0.02, immunostained sections, image analysis
Protocol: as §1
All mice were of the CD strain (Charles Rivers, Montreal, Quebec) and weighing 25-30 g. […]
At the termination of the experiments, the animals were sacrificed by cervical dislocation and the spleens, livers, and kidneys were fixed in 96% ethanol, 1% glacial acetic acid and 3% water as described in Lyon, A.W. et al. ("Co-deposition of Basement Membrane Components During the Induction of Murine Splenic AA Amyloid" Lab. Invest. 64:785-790 (1991)). […] The histologic sections viewed under polarized light were assessed by image analysis for the percent of spleen occupied by amyloid. In the case of the experiments with sucrose octasulfate, the tissues were immunostained with an antibody to the SAA protein (described in Lyon A.W. et al. Lab Invest. 64:785-790 (1991)) and the immunostained sections assessed by image analysis for the percent of tissue section occupied by amyloid.

[3] = Viability of animals under intraperitoneal therapy, Experiment 1
Protocol: All animals received AgNO3 (0.5 ml, 2% solution) subcutaneously in the back, and amyloid enhancing factor (AEF) 100 µg intravenously. The preparation of amyloid enhancing factor has been described previously in Axelrad, M.A. et al. ("Further Characterization of Amyloid Enhancing Factor" Lab. Invest. 47:139-146 (1982)). The animals were divided into several groups one of which was an untreated control group which was sacrificed six days later. The remaining animals were divided into those which received poly(vinyl sulfonic acid sodium salt) (PVS) at 50 mg, 40 mg, 20 mg, or 10mg by intraperitoneal injection every 12 hours or sucrose octasulfate ammonium salt (SOA) at 73 mg or 36.5 mg every 8 hours by IP injection. Surviving animals were sacrificed on the 5th day of treatment. In all cases the PVS or SOA was dissolved in a sterile aqueous carrier.
All control animals survived the experiment without incident. […] Animals receiving 36.5 mg of sucrose octasulfate/injection all survived. […] In all cases of animal deaths prior to the end of the experiments, the cause of death was uncontrolled intraperitoneal hemorrhage.
Intraperitoneal injection was selected as providing a large membrane surface for ease of access to the circulating system. […]

SMILES: NCCS(=O)(=O)[O-].[Na+] [taurine sodium salt, 2-amino-ethanesulfonic acid sodium salt]
- amyloid deposition versus control animals (amyloid deposition): not observed to have less amyloid deposition than control animals

SMILES: O=S(=O)([O-])CCCS(=O)(=O)[O-].[Na+].[Na+] [propane-1,3-disulfonic acid sodium salt]
- amyloid deposition versus control animals (amyloid deposition): less amyloid deposition than control animals

SMILES: CCS(=O)(=O)O [EMS, Ethane monosulfonate, sodium salt]
- course of splenic amyloid deposition (Figure 8) ([1]; 6 mg/ml EMS in drinking water from day 7): stopped depositing amyloid after day 14
- gastrointestinal side effect ([1]; EMS 2.5 or 6 mg/ml in drinking water): did not develop gastrointestinal problems
- inhibition of chronic amyloid deposition ([1]; restated in Experiment 8 with reference to Experiment 6): has been observed to inhibit chronic amyloid deposition
- amyloid deposition versus control animals (amyloid deposition): not observed to have less amyloid deposition than control animals

SMILES: N.N.N.N.N.N.N.N.O=S(=O)(O)OC[C@H]1O[C@@](COS(=O)(=O)O)(O[C@H]2O[C@H](COS(=O)(=O)O)[C@@H](OS(=O)(=O)O)[C@H](OS(=O)(=O)O)[C@H]2OS(=O)(=O)O)[C@@H](OS(=O)(=O)O)[C@@H]1OS(=O)(=O)O [sucrose octasulfate, sucrose octasulfate ammonium salt]
- % Area Occupied by Amyloid ([2]; ammonium salt): 3.2% ± 0.5%
- % Area Occupied by Amyloid ([2]; listed as Sucrose OctaSO4, ammonium salt): 3.2 ± 0.5%
- viability of animals ([3]; 36.5 mg/injection IP every 8 hours): all survived
- viability of animals ([3]; 73 mg/injection IP every 8 hours, cause of death intraperitoneal hemorrhage): succumbed prior to the termination of the experiment

SMILES: CCCS(=O)(=O)[O-].[Na+] [propane-1-sulfonic acid sodium salt]
- amyloid deposition versus control animals (amyloid deposition): less amyloid deposition than control animals

SMILES: O=S(=O)([O-])CCCCS(=O)(=O)[O-].[Na+].[Na+] [butane-1,4-disulfonic acid sodium salt]
- amyloid deposition versus control animals (amyloid deposition): not observed to have less amyloid deposition than control animals

SMILES: O=S(=O)([O-])CCS(=O)(=O)[O-].[Na+].[Na+] [ethane-1,2-disulfonic acid sodium salt]
- amyloid deposition versus control animals (amyloid deposition): less amyloid deposition than control animals

Reference: patent EP1614416A2, “Method for treating amyloidosis” (QUEEN'S UNIVERSITY AT KINGSTON, priority 1993, dated 1994)
